pIC50: −log10 of the molar value.

One may read the inhibition as the change of the read-out against control, counted positive when it falls. As a reminder, the pIC50 is the negative decadic logarithm of the IC50, by convention in mol/L. Read a low pIC50 as a high IC50.

Assay [1] has as its target T1, hFASN enzyme (full length) (Homo sapiens, UniProt P49327).
T1 construct: 10 μL hFASN enzyme (full length, 300 ng, purified in house); made in house
Put plainly: Fatty Acid Synthase (FASN) inhibition scintillation proximity assay. In kind it is biochemical. The following applies: for inhibition at 10 µM: read-out: Human FASN % inhibition @ 10 μM, 10 μM test compound; for IC50: read-out: Human FASN pIC50 (converted). The gist of the method: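 Proximity read-out: hydrophobic ^3H-palmitate formed from ^3H-acetyl-CoA and malonyl-CoA binds streptavidin imaging beads, imaged at 610±20 nm at least 24 h after stopping. Enzyme was in-house purified full-length hFASN, 300 ng, in pH 7.5 phosphate/DTT buffer; compound series 30 μM down to 0.01 μM, normalized to controls, 4-parameter fit.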

In assay [2] the test system is A2780 ovarian cells. The assay is described as follows: A2780 ovarian cell proliferation assay in lipid reduced medium, with palmitate (MTT). It counts as cell-based. The following applies: Homo sapiens, A2780, 96 h; read-out: pIC50 A2780 Ovarian Cell, With Palmitate (converted). The procedure, abridged: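 In this palmitate-supplemented format, compound dilutions (30 μM down to 0.01 μM) are added to cells in lipid-reduced serum with 25 μM palmitate, 0.2% fatty-acid-free BSA and 0.25% ethanol. After four days (96 h) MTT absorbance at 544 nm is recorded and fitted by minimum sum of squares.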

Assay [3] concerns A2780 ovarian cells. The assay is described as follows: A2780 ovarian cell proliferation assay in lipid reduced medium, without palmitate (MTT). In kind it is cell-based. The following applies: Homo sapiens, A2780, 96 h; read-out: pIC50 A2780 Ovarian Cell, Without Palmitate (converted).
In assay [4] the test system is LNCaP-Vancouver prostate cells. The assay is described as follows: In vitro LNCaP Vancouver prostate cell proliferation assay in lipid reduced medium. It counts as cell-based. The following applies: read-out: pIC50 LNCaP_Vancouver prostate cell (converted).
Assay [5] concerns PC-3M-Luc-C6 prostate cells. Put plainly: In vitro PC-3M-Luc-C6 prostate cell proliferation assay in lipid reduced medium. In kind it is cell-based. The following applies: 96 h, read-out: pIC50 PC-3M-Luc-C6 prostate cell (converted).
The target of assay [6] is Fatty Acid Synthase Keto-reductase Domain (FASN KR) (Homo sapiens, UniProt P49327). The assay is described as follows: Fatty Acid Synthase keto-reductase domain (FASN KR) inhibition, NADPH oxidation at 340 nm.
Fatty Acid Synthase Keto-reductase Domain (FASN KR), sequence (P49327 whole entry, the tested form may be a part): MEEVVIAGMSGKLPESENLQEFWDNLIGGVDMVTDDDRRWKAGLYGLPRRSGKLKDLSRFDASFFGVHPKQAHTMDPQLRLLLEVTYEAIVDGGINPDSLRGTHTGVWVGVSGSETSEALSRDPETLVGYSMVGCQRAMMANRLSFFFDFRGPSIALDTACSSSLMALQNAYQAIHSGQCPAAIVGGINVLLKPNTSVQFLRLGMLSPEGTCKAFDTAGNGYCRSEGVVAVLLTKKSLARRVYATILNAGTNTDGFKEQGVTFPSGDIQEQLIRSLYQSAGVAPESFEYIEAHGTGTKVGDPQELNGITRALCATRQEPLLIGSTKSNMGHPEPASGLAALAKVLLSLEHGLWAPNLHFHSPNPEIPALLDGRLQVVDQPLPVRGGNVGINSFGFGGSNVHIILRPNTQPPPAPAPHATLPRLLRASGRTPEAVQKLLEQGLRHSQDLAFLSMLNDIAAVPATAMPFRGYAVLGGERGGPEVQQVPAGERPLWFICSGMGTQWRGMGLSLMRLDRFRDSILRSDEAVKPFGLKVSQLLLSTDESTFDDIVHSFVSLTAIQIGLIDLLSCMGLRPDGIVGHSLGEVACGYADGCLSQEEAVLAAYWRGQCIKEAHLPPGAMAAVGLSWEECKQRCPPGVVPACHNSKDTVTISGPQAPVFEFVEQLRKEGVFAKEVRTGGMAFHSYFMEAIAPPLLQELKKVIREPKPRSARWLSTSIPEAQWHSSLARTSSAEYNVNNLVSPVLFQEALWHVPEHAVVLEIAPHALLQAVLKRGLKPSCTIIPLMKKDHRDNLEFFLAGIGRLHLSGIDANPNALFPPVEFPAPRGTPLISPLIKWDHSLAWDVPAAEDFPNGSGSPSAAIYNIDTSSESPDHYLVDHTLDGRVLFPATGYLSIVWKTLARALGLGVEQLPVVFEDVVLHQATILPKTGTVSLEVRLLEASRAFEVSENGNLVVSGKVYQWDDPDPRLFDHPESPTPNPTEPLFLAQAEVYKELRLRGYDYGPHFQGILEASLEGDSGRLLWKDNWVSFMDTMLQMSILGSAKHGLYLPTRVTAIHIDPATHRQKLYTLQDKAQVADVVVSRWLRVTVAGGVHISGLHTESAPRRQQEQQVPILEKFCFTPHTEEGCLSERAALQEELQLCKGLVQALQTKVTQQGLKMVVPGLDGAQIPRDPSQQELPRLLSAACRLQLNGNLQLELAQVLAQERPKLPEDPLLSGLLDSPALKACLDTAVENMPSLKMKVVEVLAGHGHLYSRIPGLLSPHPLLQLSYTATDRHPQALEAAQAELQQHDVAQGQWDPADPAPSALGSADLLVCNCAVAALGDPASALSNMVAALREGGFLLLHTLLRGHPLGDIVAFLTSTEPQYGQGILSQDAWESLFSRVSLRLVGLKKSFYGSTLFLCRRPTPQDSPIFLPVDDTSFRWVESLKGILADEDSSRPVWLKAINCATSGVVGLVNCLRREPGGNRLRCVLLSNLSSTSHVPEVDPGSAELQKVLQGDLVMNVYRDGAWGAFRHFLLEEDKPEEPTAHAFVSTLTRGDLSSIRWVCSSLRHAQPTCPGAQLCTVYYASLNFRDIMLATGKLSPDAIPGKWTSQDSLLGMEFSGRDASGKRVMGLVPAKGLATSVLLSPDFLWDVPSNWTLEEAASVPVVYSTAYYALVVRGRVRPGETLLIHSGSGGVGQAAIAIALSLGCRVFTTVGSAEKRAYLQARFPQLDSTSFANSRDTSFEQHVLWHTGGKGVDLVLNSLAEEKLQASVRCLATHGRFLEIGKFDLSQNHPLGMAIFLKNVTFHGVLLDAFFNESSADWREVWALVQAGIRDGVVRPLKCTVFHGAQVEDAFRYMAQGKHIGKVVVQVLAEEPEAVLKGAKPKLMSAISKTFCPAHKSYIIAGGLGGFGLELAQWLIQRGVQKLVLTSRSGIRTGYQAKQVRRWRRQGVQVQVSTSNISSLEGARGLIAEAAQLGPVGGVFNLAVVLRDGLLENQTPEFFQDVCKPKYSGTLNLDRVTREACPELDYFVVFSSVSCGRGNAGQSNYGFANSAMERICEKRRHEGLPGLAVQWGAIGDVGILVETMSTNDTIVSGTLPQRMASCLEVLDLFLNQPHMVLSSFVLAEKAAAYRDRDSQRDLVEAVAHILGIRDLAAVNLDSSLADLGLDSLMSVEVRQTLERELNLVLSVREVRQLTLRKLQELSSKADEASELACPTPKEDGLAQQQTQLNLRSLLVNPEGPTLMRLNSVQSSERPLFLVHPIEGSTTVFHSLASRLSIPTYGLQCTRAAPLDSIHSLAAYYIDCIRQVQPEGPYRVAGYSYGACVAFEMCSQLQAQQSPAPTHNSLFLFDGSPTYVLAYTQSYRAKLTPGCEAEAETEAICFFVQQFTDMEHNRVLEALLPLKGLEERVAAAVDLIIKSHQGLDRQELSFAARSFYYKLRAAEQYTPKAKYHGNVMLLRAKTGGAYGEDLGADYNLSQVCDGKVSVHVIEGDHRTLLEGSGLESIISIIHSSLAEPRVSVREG
Protocol: After 20 minutes incubation at room temperature the plate was measured again (T2).
The decrease in absorbance was calculated as (Absorbance before incubation T1)−(Absorbance following incubation T2).
A plot of Controlmin versus test compound concentration was fitted to a 4-parameter logistic curve using a non-linear least squares regression method.

T1 sequence (P49327 whole entry): as the sequence (P49327 whole entry, the tested form may be a part) above

As for `Cc1cc(-c2ccc3oc(C)c(C)c3c2)ccc1C1=NC2(CC2)C(=O)N1C[C@@H]1CCN(C(=O)C2CC2)C1` [compound 282, (R)-6-((1-(cyclopropanecarbonyl)pyrrolidin-3-yl)methyl)-5-(4-(2,3-dimethylbenzofuran-5-yl)-2-methylphenyl)-4,6-diazaspiro[2.4]hept-4-en-7-one], the inhibition at 10 µM in assay [1] worked out at 106%. Also, the IC50 in assay [1] is 87.1 nM; in the assay on A2780 ovarian cells [2] it was more than 10000 nM; in the assay with A2780 ovarian cells [3] it was approximately 2090 nM; in assay [4] it was approximately 2140 nM; in assay [5] it was approximately 1700 nM. The compound also gave a pIC50 in assay [6] of 6.65.

As for `Cc1cc(-c2ccc3[nH]ccc3c2)ccc1C1=NC2(CC2)C(=O)N1C[C@@H]1CCN(C(=O)C2CC2)C1` [compound 284, (R)-5-(4-(1H-indol-5-yl)-2-methylphenyl)-6-((1-(cyclopropanecarbonyl)pyrrolidin-3-yl)methyl)-4,6-diazaspiro[2.4]hept-4-en-7-one], the inhibition at 10 µM in assay [1] was determined as 106%. The IC50 was 25.7 nM in assay [1]; more than 10000 nM in the assay on A2780 ovarian cells [2]; approximately 23.4 nM with A2780 ovarian cells [3]; 38 nM in assay [4]; 18.2 nM in assay [5]. Moreover, the negative logarithm of the IC50 (pIC50) in assay [6] was 7.51.

With `Cc1cc(-c2ccc3[nH]ncc3c2)ccc1C1=NC2(CC2)C(=O)N1C[C@@H]1CCN(C(=O)C2CC2)C1` [compound 286, (R)-5-(4-(1H-indazol-5-yl)-2-methylphenyl)-6-((1-(cyclopropanecarbonyl)pyrrolidin-3-yl)methyl)-4,6-diazaspiro[2.4]hept-4-en-7-one], the inhibition at 10 µM in assay [1] was 103%. Further, the IC50 in assay [1] was 43.7 nM; with A2780 ovarian cells [2], more than 10000 nM; with A2780 ovarian cells [3] it was approximately 21.4 nM; in assay [4], 123 nM; in assay [5] it was 25.1 nM. The pIC50 in assay [6] is 7.22.

For `Cc1cc(-c2ccc3sccc3c2)ccc1C1=NC2(CC2)C(=O)N1CC1CN(C(=O)C2CC2)C1` [compound 288], in assay [1], the inhibition at 10 µM was 107%. In addition, the IC50 in assay [1] is 26.9 nM; with A2780 ovarian cells [2], more than 10000 nM; with A2780 ovarian cells [3], approximately 107 nM; in assay [4] it was 537 nM; in assay [5], 77.6 nM. The compound also had a pIC50 in assay [6] of 7.27.

For `Cc1cc(-c2ccc3sc(C)c(C)c3c2)ccc1C1=NC2(CC2)C(=O)N1CC1CN(C(=O)C2CC2)C1` [compound 290, 6-((1-(cyclopropanecarbonyl)azetidin-3-yl)methyl)-5-(4-(2,3-dimethylbenzo[b]thiophen-5-yl)-2-methylphenyl)-4,6-diazaspiro[2.4]hept-4-en-7-one], the inhibition at 10 µM in assay [1] was determined as 110%. For the same compound, the IC50 in assay [1] was 79.4 nM; in the assay on A2780 ovarian cells [2] it was more than 10000 nM; in the assay with A2780 ovarian cells [3] it was approximately 1950 nM; in assay [4], approximately 2140 nM; in assay [5], approximately 1170 nM. The compound further showed a pIC50 in assay [6] of 6.48.

For the compound `Cc1cc(-c2ccc3[nH]ccc3c2)ccc1C1=NC2(CC2)C(=O)N1CC1CN(C(=O)C2CC2)C1` [compound 291, 5-(4-(1H-indol-5-yl)-2-methylphenyl)-6-((1-(cyclopropanecarbonyl)azetidin-3-yl)methyl)-4,6-diazaspiro[2.4]hept-4-en-7-one], in assay [1], the inhibition at 10 µM is 108%. The IC50 in assay [1] was 27.5 nM; with A2780 ovarian cells [2], more than 10000 nM; with A2780 ovarian cells [3], 45.7 nM; in assay [4], 295 nM; in assay [5] it was approximately 42.7 nM. Also, the pIC50 in assay [6] was 7.42.

With `Cc1cc(-c2ccc3c(cnn3C)c2)ccc1C1=NC2(CC2)C(=O)N1CC1CN(C(=O)C2CC2)C1` [compound 292, 6-((1-(cyclopropanecarbonyl)azetidin-3-yl)methyl)-5-(2-methyl-4-(1-methyl-1H-indazol-5-yl)phenyl)-4,6-diazaspiro[2.4]hept-4-en-7-one], the inhibition at 10 µM in assay [1] stood at 100%. Moreover, the IC50 in assay [1] was 87.1 nM; with A2780 ovarian cells [2], more than 10000 nM; in the assay with A2780 ovarian cells [3], 126 nM; in assay [4], 692 nM; in assay [5], 178 nM. The pIC50 in assay [6] is 6.61.

`Cc1cc(-c2ccc3[nH]ncc3c2)ccc1C1=NC2(CC2)C(=O)N1CC1CN(C(=O)C2CC2)C1` [compound 293, 5-(4-(1H-indazol-5-yl)-2-methylphenyl)-6-((1-(cyclopropanecarbonyl)azetidin-3-yl)methyl)-4,6-diazaspiro[2.4]hept-4-en-7-one]: in assay [1], the inhibition at 10 µM came to 105%. The IC50 in assay [1] is 38 nM; in the assay on A2780 ovarian cells [2], more than 10000 nM; in the assay with A2780 ovarian cells [3], 87.1 nM; in assay [4], approximately 513 nM; in assay [5] it was approximately 141 nM. The compound also gave a pIC50 in assay [6] of 6.76.

For the compound `Cc1cc2cc(-c3ccc(C4=NC5(CC5)C(=O)N4C[C@@H]4CCN(C(=O)C5CC5)C4)cc3)ccc2s1` [compound 295, (R)-6-((1-(cyclopropanecarbonyl)pyrrolidin-3-yl)methyl)-5-(4-(2-methylbenzo[b]thiophen-5-yl)phenyl)-4,6-diazaspiro[2.4]hept-4-en-7-one], the inhibition at 10 µM in assay [1] was 100%. Also, the IC50 was 53.7 nM in assay [1]; more than 10000 nM with A2780 ovarian cells [2]; 631 nM in the assay on A2780 ovarian cells [3]; 1290 nM in assay [4]; approximately 575 nM in assay [5]. In assay [6], this compound showed a pIC50 of 6.98.

In the case of `O=C(C1CC1)N1CC[C@@H](CN2C(=O)C3(CC3)N=C2c2ccc(-c3ccc4sccc4c3)cc2)C1` [compound 298, (R)-5-(4-(benzo[b]thiophen-5-yl)phenyl)-6-((1-(cyclopropanecarbonyl)pyrrolidin-3-yl)methyl)-4,6-diazaspiro[2.4]hept-4-en-7-one], in assay [1], the inhibition at 10 µM stood at 100%. Also, the IC50 was 21.9 nM in assay [1]; more than 10000 nM with A2780 ovarian cells [2]; 58.9 nM with A2780 ovarian cells [3]; 617 nM in assay [4]; 66.1 nM in assay [5]. Further, in assay [6], the negative logarithm of the IC50 (pIC50) is 7.57.

As for `O=C(C1CC1)N1CC(CN2C(=O)C3(CC3)N=C2c2ccc(-c3ccc4cc[nH]c4c3)cc2)C1` [compound 299, 5-(4-(1H-indol-6-yl)phenyl)-6-((1-(cyclopropanecarbonyl)azetidin-3-yl)methyl)-4,6-diazaspiro[2.4]hept-4-en-7-one], in assay [1], the inhibition at 10 µM amounted to 101%. The IC50 in assay [1] was 22.9 nM; in the assay with A2780 ovarian cells [2] it was more than 10000 nM; in the assay on A2780 ovarian cells [3], 30.9 nM; in assay [4], 234 nM; in assay [5], 38.9 nM. In assay [6], the pIC50 was 7.23.

For `O=C(C1CC1)N1CC(CN2C(=O)C3(CC3)N=C2c2ccc(-c3cccc4[nH]ncc34)cc2)C1` [compound 300, 5-(4-(1H-indazol-4-yl)phenyl)-6-((1-(cyclopropanecarbonyl)azetidin-3-yl)methyl)-4,6-diazaspiro[2.4]hept-4-en-7-one], the inhibition at 10 µM in assay [1] is 102%. The IC50 in assay [1] is 57.5 nM; in the assay on A2780 ovarian cells [2] it was more than 10000 nM; in the assay with A2780 ovarian cells [3] it was 74.1 nM; in assay [4] it was 1910 nM; in assay [5], 123 nM. In addition, in assay [6], the pIC50 was 6.90.

The values are drawn from US10077261B2, “Imidazolin-5-one derivative useful as FASN inhibitors for the treatment of cancer” (Janssen Pharmaceutica NV, priority 2012, dated 2018).
